Experimental data taken from publication PMC8453936, “Development and in vitro Profiling of Dual FXR/LTA4H Modulators” (Chemmedchem, 2021).

What was measured:
HepG2 cells = assay: WST-1 cell viability assay; assay type: cell-based; conditions: up to 100 μM, 48 h
recombinant human LTA4H [1] = molecular target: T1, recombinant human LTA4H (Homo sapiens, UniProt P09960); assay: Isothermal titration calorimetry on LTA4H; set-up: His-tag (inferred from IMAC on HisTrap); made in house; host or cells: E. coli BL21(DE3)RIPL-Codon Plus; conditions: ITC, 25 °C, 1:1 binding assumed
T1 sequence (P09960 1-611): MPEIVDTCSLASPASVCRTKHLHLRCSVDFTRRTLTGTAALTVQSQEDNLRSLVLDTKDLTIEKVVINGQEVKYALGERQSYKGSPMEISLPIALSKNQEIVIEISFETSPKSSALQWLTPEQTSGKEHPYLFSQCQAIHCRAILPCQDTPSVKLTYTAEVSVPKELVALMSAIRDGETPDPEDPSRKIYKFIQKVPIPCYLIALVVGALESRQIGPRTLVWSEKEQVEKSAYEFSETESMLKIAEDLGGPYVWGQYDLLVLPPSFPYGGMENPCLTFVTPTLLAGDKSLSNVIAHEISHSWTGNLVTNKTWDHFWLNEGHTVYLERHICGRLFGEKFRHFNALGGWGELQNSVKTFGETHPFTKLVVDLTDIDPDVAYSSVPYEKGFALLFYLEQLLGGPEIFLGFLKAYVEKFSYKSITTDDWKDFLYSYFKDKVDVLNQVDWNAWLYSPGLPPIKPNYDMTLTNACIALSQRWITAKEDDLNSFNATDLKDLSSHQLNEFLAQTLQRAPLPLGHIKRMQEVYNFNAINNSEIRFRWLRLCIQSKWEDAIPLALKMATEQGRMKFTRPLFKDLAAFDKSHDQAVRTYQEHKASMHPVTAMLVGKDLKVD

[2] = molecular target: T2, recombinant human FXR LBD (Homo sapiens, UniProt Q96RI1); assay: Isothermal titration calorimetry on FXR LBD; conditions: ITC, 25 °C, 1:1 binding assumed
T2 construct: Recombinant FXR LBD for ITC experiments was obtained; His6-tag (TEV-cleavable) (cleaved yes); made in house; host or cells: E. coli BL21 (DE3)
T2 sequence (Q96RI1 262-486 limits assumed): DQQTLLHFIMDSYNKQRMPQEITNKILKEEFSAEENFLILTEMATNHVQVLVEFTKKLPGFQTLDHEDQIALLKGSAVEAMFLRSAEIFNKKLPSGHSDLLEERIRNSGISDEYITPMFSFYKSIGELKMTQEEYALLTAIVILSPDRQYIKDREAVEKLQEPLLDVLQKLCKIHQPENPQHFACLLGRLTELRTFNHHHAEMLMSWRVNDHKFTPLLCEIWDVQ

recombinant human LTA4H [3] = molecular target: T1, recombinant human LTA4H; conditions: for LTA4H max. inhib.: LTA4H inhibition at the highest tested concentration (up to 100 μM), mean±S.E.M., n=3
From the text: FXR modulation by 3–20 was characterized in a cellular (HeLa, transiently transfected) full‐length FXR reporter gene assay employing the human FXR response element from the promoter region of bile salt export protein (BSEP) to govern firefly luciferase expression as reporter gene.[26, 27] FXR and its natural heterodimer partner retinoid X receptor (RXR) were constitutively over‐expressed and a constitutively expressed renilla luciferase was present as internal control for transfection efficiency and cellular health.
LTA4H assay. […] The assay was performed in black polystyrol 96‐well plates in a final volume of 100 μL. Test compound solution in DMSO (1 μL) or DMSO alone as control were incubated with 89 μl protein mixture (containing LTA4H, buffer and Triton‐X‐100). After 30 min, 10 μl of substrate mixture (containing L‐arginin‐7‐amido‐4‐methylcumarine and DMSO in buffer) were added. […] A blank measurement containing no protein was performed and treated as 0 % conversion control. All samples were measured in triplicates and each experiment was conducted in three independent repeats.

recombinant human sEH = molecular target: T3, recombinant human sEH (Homo sapiens, UniProt P34913); assay: sEH activity assay with PHOME as fluorogenic substrate; assay type: biochemical; conditions: mean±S.E.M., n=3
T3 construct: Human sEH full length protein was purified as described by Lukin et al; made in house; host or cells: E. coli BL21 (DE3)
T3 sequence (P34913 1-555): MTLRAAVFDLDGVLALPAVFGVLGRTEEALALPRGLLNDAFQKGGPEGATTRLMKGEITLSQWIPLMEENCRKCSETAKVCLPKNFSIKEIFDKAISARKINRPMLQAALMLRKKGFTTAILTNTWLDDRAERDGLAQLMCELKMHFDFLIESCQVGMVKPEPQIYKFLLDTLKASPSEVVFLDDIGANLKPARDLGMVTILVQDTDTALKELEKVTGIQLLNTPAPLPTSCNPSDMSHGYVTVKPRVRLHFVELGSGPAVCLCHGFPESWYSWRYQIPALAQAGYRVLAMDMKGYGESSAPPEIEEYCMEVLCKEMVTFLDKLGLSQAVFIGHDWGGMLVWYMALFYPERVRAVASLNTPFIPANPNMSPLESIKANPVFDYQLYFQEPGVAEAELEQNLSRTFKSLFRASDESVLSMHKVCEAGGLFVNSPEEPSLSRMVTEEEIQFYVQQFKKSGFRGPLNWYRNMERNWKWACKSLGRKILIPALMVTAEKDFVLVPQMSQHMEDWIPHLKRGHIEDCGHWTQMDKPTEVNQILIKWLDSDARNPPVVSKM

| Structure (SMILES) | cytotoxic / anti-proliferative effect in WST-1 assay (HepG2 cells) | Kd (recombinant human LTA4H [1]) [nM] | Kd [2] [µM] | IC50 (recombinant human LTA4H [3]) [nM] | LTA4H max. inhib. (recombinant human LTA4H [3]) [%] | sEH inhibition (recombinant human sEH; at 100 μM) [% inhibition at 100 μM] | IC50 (recombinant human sEH; read-out: sEH inhibition IC50) [µM] |
| --- | --- | --- | --- | --- | --- | --- | --- |
| O=C(O)c1cccc(NC(=O)c2ccc(OCCCc3ccccc3)cc2)c1 [compound 8] | slight anti‐proliferative activity at high concentration | ~300 | ~7 | 140 ± 10 | 98.8±0.1 | 6±1 | – |
| O=C(O)c1ccnc(NC(=O)c2ccc(OCCCc3ccccc3)cc2)c1 [compound 19, 2‐(4‐(3‐Phenylpropoxy)benzamido)isonicotinic acid] | no cytotoxic effects | ~700 | ~3 | 450 ± 20 | 98.9±0.1 | – | 68 |
